Results as given in article PMC4613257, “Ile-1781-Leu and Asp-2078-Gly Mutations in ACCase Gene, Endow Cross-resistance to APP, CHD, and PPZ in Phalaris minor from Mexico” (International Journal of Molecular Sciences, 2015).
Where two headings read alike, the source gives them in different places.

Target: ACCase
Conditions: read-out: I50, R biotype, both substitutions found, zygosity not given, stated gain, pH 8.3, 34 °C, 1.5 mM ATP, 5 mM MgCl2, 15 mM NaH14CO3, 5 mM acetyl-CoA
Description: ATP-dependent NaH14CO3 incorporation into acid-stable product on ACCase

| SMILES | IC50 [µM] | further results |
| --- | --- | --- |
| CC(Oc1ccc(Oc2ccc(Cl)cc2Cl)cc1)C(=O)O (stereo not drawn) [diclofop acid] | – | IC50 (table prints the methyl ester, methods list the acid): 7.14 µM |
| CCON=C(CC)C1=C(O)CC(c2c(C)cc(C)cc2C)CC1=O (stereo not drawn) [tralkoxydim] | 8.81 | – |
| CC(Oc1ccc(Oc2nc3ccc(Cl)cc3o2)cc1)C(=O)O (stereo not drawn) [Fenoxaprop acid] | – | IC50 (table prints the ethyl ester, methods state the acid): 7.85 µM |
| C[C@@H](Oc1ccc(Oc2ccc(C#N)cc2F)cc1)C(=O)O [cyhalofop acid] | – | IC50 (table prints the butyl ester, methods list the acid): 77.7 µM |
| CCCC(=NOCC)C1=C(O)CC(CC(C)SCC)CC1=O (stereo not drawn) [sethoxydim] | 1500 | – |
| CCc1cc(C)cc(CC)c1-c1c(OC(=O)C(C)(C)C)n2n(c1=O)CCOCC2 [pinoxaden] | 9.13 | – |
